In ChEMBL document CHEMBL6109073, “Discovery of β-amino acid substituted naphthalene sulfonamide derivatives as potent Kelch-like ECH-associated protein 1-nuclear factor erythroid 2-related factor 2 (Keap1-Nrf2) protein-protein interaction inhibitors for ulcerative colitis management” (Eur J Med Chem, 2025):

target: Keap1/Nrf2 (Homo sapiens, UniProt Q14145)
Sequence (Q16236 whole entry): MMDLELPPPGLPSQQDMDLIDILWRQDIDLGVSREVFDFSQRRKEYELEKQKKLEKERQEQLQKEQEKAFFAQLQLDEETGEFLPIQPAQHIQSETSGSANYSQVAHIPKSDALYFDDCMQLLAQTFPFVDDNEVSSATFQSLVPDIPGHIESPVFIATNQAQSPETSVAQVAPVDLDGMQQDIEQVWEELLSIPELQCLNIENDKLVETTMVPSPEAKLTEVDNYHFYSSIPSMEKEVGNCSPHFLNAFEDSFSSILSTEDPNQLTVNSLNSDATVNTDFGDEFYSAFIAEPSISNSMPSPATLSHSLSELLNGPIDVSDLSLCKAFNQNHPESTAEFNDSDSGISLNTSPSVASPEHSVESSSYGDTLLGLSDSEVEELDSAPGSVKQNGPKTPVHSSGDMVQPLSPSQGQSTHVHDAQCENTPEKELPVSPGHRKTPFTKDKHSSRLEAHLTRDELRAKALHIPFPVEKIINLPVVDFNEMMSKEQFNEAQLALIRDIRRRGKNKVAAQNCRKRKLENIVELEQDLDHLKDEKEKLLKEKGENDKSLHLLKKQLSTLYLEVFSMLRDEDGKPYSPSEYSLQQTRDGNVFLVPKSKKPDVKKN
Sequence (Q14145 whole entry): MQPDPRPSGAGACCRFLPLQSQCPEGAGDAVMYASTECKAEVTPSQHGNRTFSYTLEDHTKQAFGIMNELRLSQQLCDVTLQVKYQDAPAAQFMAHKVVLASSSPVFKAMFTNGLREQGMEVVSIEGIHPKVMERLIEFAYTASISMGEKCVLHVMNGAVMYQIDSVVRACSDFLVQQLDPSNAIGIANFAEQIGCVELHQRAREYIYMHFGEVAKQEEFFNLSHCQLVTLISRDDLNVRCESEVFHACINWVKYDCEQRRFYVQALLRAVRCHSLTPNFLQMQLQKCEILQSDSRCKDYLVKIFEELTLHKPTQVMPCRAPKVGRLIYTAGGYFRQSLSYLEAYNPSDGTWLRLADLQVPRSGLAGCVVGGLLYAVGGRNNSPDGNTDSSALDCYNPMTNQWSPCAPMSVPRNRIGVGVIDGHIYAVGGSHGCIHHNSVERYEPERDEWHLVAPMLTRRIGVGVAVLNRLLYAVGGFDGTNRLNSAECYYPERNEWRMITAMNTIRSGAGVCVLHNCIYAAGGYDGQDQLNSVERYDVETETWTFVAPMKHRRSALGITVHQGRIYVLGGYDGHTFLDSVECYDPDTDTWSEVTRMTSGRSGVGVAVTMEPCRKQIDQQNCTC
Description: Inhibition of Keap1 kelch domain (322 to 609 residues) (unknown origin)/Nrf2 (unknown origin) protein-protein interaction incubated for 30 mins by fluorescence polarization assay

IC50	Structure (SMILES)
16.5 µM	C[C@@H](CC(=O)O)Nc1ccc(N(CC(=O)O)S(=O)(=O)c2ccc(C(F)(F)F)cc2)c2ccccc12
1.61 µM	Cc1cc(C)c(C)c(S(=O)(=O)N(CC(=O)O)c2ccc(N[C@@H](C)CC(=O)O)c3ccccc23)c1C
2.28 µM	Cc1cc(C)c(S(=O)(=O)Nc2ccc(N[C@@H](C)CC(=O)O)c3ccccc23)c(C)c1
10.6 µM	C[C@@H](CC(=O)O)Nc1ccc(N(CC(=O)O)S(=O)(=O)c2ccc(Cl)cc2)c2ccccc12
> 50 µM	COc1ccc(S(=O)(=O)Nc2ccc(N[C@@H](CC(=O)O)c3ccccc3)c3ccccc23)cc1
> 50 µM	C[C@@H](CC(=O)O)Nc1ccc(NS(=O)(=O)c2ccc(C(C)(C)C)cc2)c2ccccc12
13.9 µM	COc1ccc(S(=O)(=O)N(CC(=O)O)c2ccc(N[C@@H](CC(=O)O)c3ccccc3)c3ccccc23)cc1
8.21 µM	COc1ccc(S(=O)(=O)N(CC(=O)O)c2ccc(N[C@@H](C)CC(=O)O)c3ccccc23)cc1
> 50 µM	COc1ccc(S(=O)(=O)Nc2ccc(N[C@@H](C)CC(=O)O)c3ccccc23)cc1
47.6 µM	C[C@@H](CC(=O)O)Nc1ccc(NS(=O)(=O)c2ccc(C(F)(F)F)cc2)c2ccccc12
10.1 µM	C[C@@H](CC(=O)O)Nc1ccc(N(CC(=O)O)S(=O)(=O)c2ccc(C(C)(C)C)cc2)c2ccccc12
> 50 µM	C[C@@H](CC(=O)O)Nc1ccc(NS(=O)(=O)c2ccc(F)cc2)c2ccccc12
6.64 µM	Cc1cc(C)c(C)c(S(=O)(=O)Nc2ccc(N[C@@H](C)CC(=O)O)c3ccccc23)c1C
44 µM	Cc1ccc(S(=O)(=O)Nc2ccc(N[C@@H](C)CC(=O)O)c3ccccc23)cc1
33.4 µM	CCOc1ccc(S(=O)(=O)Nc2ccc(N[C@@H](C)CC(=O)O)c3ccccc23)cc1
> 50 µM	C[C@@H](CC(=O)O)Nc1ccc(NS(=O)(=O)c2ccc(Cl)cc2)c2ccccc12
23.7 µM	C[C@@H](CC(=O)O)Nc1ccc(N(CC(=O)O)S(=O)(=O)c2ccc(F)cc2)c2ccccc12
7.14 µM	Cc1ccc(S(=O)(=O)N(CC(=O)O)c2ccc(N[C@@H](C)CC(=O)O)c3ccccc23)cc1
8.82 µM	CCOc1ccc(S(=O)(=O)N(CC(=O)O)c2ccc(N[C@@H](C)CC(=O)O)c3ccccc23)cc1
